Results published in the supplement of paper PMC11451515.

Key:
Details in all cases: 48 h
SEM cells [1] = assay: AUC of viability dose-response curve (% viability x log10 dose units); higher = less sensitive
In short: (§1)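 Leukemia cells adapted to each medium were seeded at 500 or 1000 cells/well in 1536-well plates and dosed with library compounds in DMSO at 11 threefold doses from 47 μM to 0.79 nM for 48 h at 37°C. CellTiter-Glo One luminescence was normalised per plate to DMSO and cell-free wells, then fitted with a four-parameter log-logistic model over log10 doses. Area under the curve was taken from this fit by the trapezoidal rule, with curves above full viability scaled and curves failing quality control removed.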

P12-Ichikawa [2] = assay: as above
In short: as §1

NOMO1 [3] = assay: as above
In short: as §1

SEM cells [4] = assay: cell viability relative to DMSO control; higher = less cytotoxic
In short: (§2)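 Library compounds in DMSO were pin-dosed in an 11-point threefold series (47 μM to 0.79 nM) onto leukemia cells in 1536-well plates (5 μl). Plates held 500 cells/well of NOMO1 or SEM or 1000 cells/well of P12-Ichikawa, each adapted for at least four passages in each medium. Luminescence was read with CellTiter-Glo One after 48 h at 37°C. Viability means the per-plate percentage relative to DMSO wells, using cell-free wells as background.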

P12-Ichikawa [5] = assay: as above
In short: as §2

NOMO1 [6] = assay: as above
In short: as §2

N\C1=N\C2=C(N=C[N]2COCCO)C(=O)N1
AUC of viability dose-response curve
Details | NOMO1 [3] | P12-Ichikawa [2] | SEM cells [1]
HPLM + 10% dialyzed FBS | 464 | 472 | 451
RPMI 5 mM glucose + 10% FBS | 461 | 465 | 460
RPMI 5 mM glucose + 10% dialyzed FBS | 467 | 473 | 431

cell viability [%]
Details | NOMO1 [6] | P12-Ichikawa [5] | SEM cells [4]
HPLM + 10% dialyzed FBS, 0.000781 µM | 93.1 | 98.2 | 93.7
HPLM + 10% dialyzed FBS, 0.00234 µM | 106 | 109 | 101
HPLM + 10% dialyzed FBS, 0.00702 µM | 123 | 106 | 97.2
HPLM + 10% dialyzed FBS, 0.0211 µM | 112 | 107 | 103
HPLM + 10% dialyzed FBS, 0.0632 µM | 103 | 111 | 100
HPLM + 10% dialyzed FBS, 0.19 µM | 119 | 112 | 99.7
HPLM + 10% dialyzed FBS, 0.569 µM | 104 | 111 | 111
HPLM + 10% dialyzed FBS, 1.71 µM | 125 | 112 | 104
HPLM + 10% dialyzed FBS, 5.12 µM | 98.3 | 109 | 89.5
HPLM + 10% dialyzed FBS, 15.4 µM | 102 | 105 | 77.3
HPLM + 10% dialyzed FBS, 46.1 µM | 73.4 | 91.3 | 60.5
RPMI 5 mM glucose + 10% FBS, 0.000781 µM | 106 | 93.7 | 87
RPMI 5 mM glucose + 10% FBS, 0.00234 µM | 96.8 | 112 | 107
RPMI 5 mM glucose + 10% FBS, 0.00702 µM | 109 | 106 | 106
RPMI 5 mM glucose + 10% FBS, 0.0211 µM | 109 | 115 | 112
RPMI 5 mM glucose + 10% FBS, 0.0632 µM | 103 | 110 | 101
RPMI 5 mM glucose + 10% FBS, 0.19 µM | 95.4 | 99.4 | 104
RPMI 5 mM glucose + 10% FBS, 0.569 µM | 98.1 | 110 | 115
RPMI 5 mM glucose + 10% FBS, 1.71 µM | 103 | 106 | 117
RPMI 5 mM glucose + 10% FBS, 5.12 µM | 103 | 106 | 106
RPMI 5 mM glucose + 10% FBS, 15.4 µM | 97.4 | 92.3 | 93.4
RPMI 5 mM glucose + 10% FBS, 46.1 µM | 96.9 | 84.6 | 56.5
RPMI 5 mM glucose + 10% dialyzed FBS, 0.000781 µM | 112 | 97.2 | 83
RPMI 5 mM glucose + 10% dialyzed FBS, 0.00234 µM | 101 | 97.8 | 93.9
RPMI 5 mM glucose + 10% dialyzed FBS, 0.00702 µM | 103 | 111 | 95.9
RPMI 5 mM glucose + 10% dialyzed FBS, 0.0211 µM | 97.8 | 98.2 | 94.3
RPMI 5 mM glucose + 10% dialyzed FBS, 0.0632 µM | 93.8 | 105 | 95.1
RPMI 5 mM glucose + 10% dialyzed FBS, 0.19 µM | 113 | 97.3 | 115
RPMI 5 mM glucose + 10% dialyzed FBS, 0.569 µM | 106 | 110 | 90.1
RPMI 5 mM glucose + 10% dialyzed FBS, 1.71 µM | 109 | 94.7 | 101
RPMI 5 mM glucose + 10% dialyzed FBS, 5.12 µM | 107 | 98.9 | 88.2
RPMI 5 mM glucose + 10% dialyzed FBS, 15.4 µM | 100 | 102 | 73.3
RPMI 5 mM glucose + 10% dialyzed FBS, 46.1 µM | 71.5 | 85.1 | 44.8
